Measured values taken from US20230027295A1, “FXIA INHIBITORS AND PREPARATION METHOD THEREFOR AND PHARMACEUTICAL USE THEREOF” (Shenzhen Salubris Pharmaceuticals Co., Ltd., priority 2019, published 2023).

Experiment: Cynomolgus monkey pharmacokinetics
Assay type: in vivo
Parameters: AUC: concentration or dose not given beside the values
Excerpt: Example 53: Investigation of the Pharmacokinetic Characteristics of the Compounds of the Present Invention
SD rats: male, 180-250 g, purchased from Guangdong Medical Laboratory Animal Center. Cynomolgus monkey: male, 4-6 kg, purchased from Guangzhou Chunsheng Biological Research Institute Co., Ltd. Beagle dog: male, 8-12 kg, developed in Kanglong Chemical (Ningbo) New Drug Technology Co., Ltd.
Reagents: DMSO (dimethyl sulfoxide), PEG-400 (polyethylene glycol 400), normal brine, heparin, acetonitrile, formic acid, and propranolol (internal standard) are commercially available.
Instrumentation: Thermo Fisher Scientific LC-MS (U300 UPLC, TSQ […] ULTRA triple quadrupole mass spectrometer).
The compound was weighed and dissolved in DMSO-PEG-400-physiological brine (5:60:35, v/v/v) system. After the rats/monkeys were administered intravenously or by gavage, 200 μL of venous blood was collected at 5 min (not collected when administered by gavage), 15 min, 30 min, 1 h, 2 h, 4 h, 6 h, 8 h, and 24 h in heparinized EP tubes, centrifuged at 12000 rpm for 2 min, and the plasma was frozen at −80° C. for testing. A certain amount of the test substance was precisely weighed and dissolved in DMSO to 1 mg/mL, which was used as a stock solution. An appropriate amount of compound stock solution was accurately pipetted and diluted with acetonitrile to prepare a standard series of solutions. 20 μL of each of the above standard series solutions were accurately pipetted, added with 180 μL of blank plasma, vortexed and mixed to prepare plasma samples equivalent to plasma concentrations of 1, 3, 10, 30, 100, 300, 1000, 3000 and 5000 ng/mL. Two-sample analysis was performed for each concentration to establish a standard curve. 20 μL of plasma was taken out, added with 200 μL of internal standard propranolol (5 ng/mL) in acetonitrile, vortexed and mixed. It was centrifuged at 4000 rpm for 5 min, and the supernatant was collected for LC-MS analysis. LC-MS detection conditions were as follows:
Chromatographic column: Thermo Scientific […] GOLD C-18 UPLC column, 100*2.1 mm, 1.9 μm.
Mobile phase: water (0.1% formic acid)-acetonitrile for gradient elution according to the table below.
After blood drug concentrations being detected by LC-MS, WinNonlin 6.1 software was used to calculate pharmacokinetic parameters by non-compartmental model method.

COc1nn([C@@H](Cc2ccccc2)C(=O)Nc2ccc(C(=O)O)cc2)c(=O)cc1-c1cc(Cl)ccc1C(C)=O [Example 19, (S)-4-(2-(4-(2-acetyl-5-chlorophenyl)-3-methoxy-6-oxopyridazin-1(6H)-yl)-3-phenylpropanamido)benzoic acid]
F (ig): 17.3% | AUC (male, plasma, iv): 1430 ng·h/mL | Cmax (male, plasma, iv): 2690 ng/mL | Tmax (male, plasma, iv): 0.083 h | clearance (male, plasma, iv): 12 mL/min/kg | half-life (male, plasma, iv): 170 min | Vd (male, plasma, iv, read-out: Vss): 0.65 L/kg | AUC (male, plasma, po, ig): 2480 ng·h/mL | Cmax (male, plasma, po, ig): 198 ng/mL | Tmax (male, plasma, po, ig): 2.5 h | half-life (male, plasma, po, ig): 424 min
